Data set [1] concerns the target G-protein coupled receptor 52 (Mus musculus) (UniProt P0C5J4). Kind of data set: In vivo agonist activity at GPR52 in C57BL/6 mouse assessed as inhibition of basal locomotor activity at 10 mg/kg, po measured for 60 mins starting at 15 mins post-drug challenge. It is filed as functional, organism-based. Conditions: time 75.0 min.
A short description of data set [2]: Ratio of drug level in brain to plasma in C57BL/6 mouse at 10 mg/kg, po measured after 60 mins by LC/MS/MS analysis. In kind it is ADME, organism-based. Conditions: brain and plasma, read-out: BPR.
Data set [3] is described as follows: Induction of catalepsy in Sprague-Dawley rat assessed as increase in latency to move both forepaws at 0.1 to 1 mg/kg, sc measured after 45 mins. In kind it is organism-based. The conditions noted are these: in vivo, 0.75 h, dose 0.1-1 mg/kg.
Data set [4] can be described thus: Induction of hyperprolactinemia in Sprague-Dawley rat assessed as increase in prolactin release in plasma at 0.1 to 1 mg/kg, po measured after 60 mins by ELISA. It is filed as organism-based. Conditions: in vivo, 1 h, dose 0.1-1 mg/kg.
Data set [5] in a line: Ratio of drug level in brain to plasma in C57BL/6 mouse at 3 mg/kg, po measured after 60 mins by LC/MS/MS analysis. In kind it is ADME, organism-based. Conditions: brain and plasma, read-out: BPR.
A short description of data set [6]: Toxicity in Sprague-Dawley rat assessed as inhibition of basal locomotor activity at 20 mg/kg, po. In kind it is organism-based. The conditions noted are these: in vivo.
The nature of data set [7]: Induction of catalepsy in Sprague-Dawley rat assessed as increase in latency to move both forepaws at 5 to 100 mg/kg, po measured after 45 mins. In kind it is organism-based. Conditions: in vivo, 0.75 h, dose 5-100 mg/kg.
Data set [8] addresses G-protein coupled receptor 52 (Mus musculus) (UniProt P0C5J4). The data set is described as follows: In vivo agonist activity at GPR52 in po dosed C57BL/6 mouse assessed as inhibition of basal locomotor activity measured for 60 mins starting at 15 mins post-drug challenge. In kind it is functional, organism-based. The conditions noted are these: time 75.0 min.
Data set [9] relates to Rattus norvegicus. The data set is described as follows: Antipsychotic activity in Sprague-Dawley rat assessed as inhibition of amphetamine-induced disruption of prepulse inhibition at 5 to 20 mg/kg, po administered 15 mins prior to amphetamine challenge and measured after 15 mins. It is filed as functional, organism-based. The conditions noted are these: dose 5-20 mg/kg, time 30.0 min.

For data set [10], the system named is Mus musculus. Kind of data set: Antipsychotic activity in 129Sv/Ev mouse assessed as inhibition of MK801-induced disruption of prepulse inhibition at 10 mg/kg, po co-administered with haloperidol at 15 mins prior to MK801 challenge and measured after 15 mins. It is filed as functional, organism-based. Conditions: time 30.0 min.
Data set [11] relates to Mus musculus. The data set is described as follows: Increase in PPI in 129Sv/Ev mouse with low PPI at 10 mg/kg, po measured after 30 mins. In kind it is functional, organism-based.
For data set [12], the system named is Rattus norvegicus. The data set is described as follows: Inhibition of haloperidol-induced hyperprolactinemia in Sprague-Dawley rat assessed as reduction in prolactin release in plasma at 10 mg/kg, po administered 30 mins prior to 0.3 mg/kg haloperidol challenge and measured after 60 mins by ELISA. The conditions noted are these: time 90.0 min. It is filed as functional, organism-based. (ELISA stands for enzyme-linked immunosorbent assay.)

The nature of data set [13]: Induction of hyperprolactinemia in Sprague-Dawley rat assessed as increase in prolactin release in plasma at 1 to 100 mg/kg, po measured after 60 mins by ELISA. In kind it is organism-based. Conditions: in vivo, 1 h, dose 1-100 mg/kg.
Data set [14] has as its system Rattus norvegicus. Kind of data set: Antipsychotic activity in Sprague-Dawley rat assessed as inhibition of amphetamine-stimulated locomotor activity at 0.5 to 20 mg/kg, po administered 15 mins prior to amphetamine stimulation and measured for 30 to 60 mins post-drug dosage. The conditions noted are these: dose 0.5-20 mg/kg, time 30-60 min. In kind it is functional, organism-based.

Data set [15] relates to Rattus norvegicus. Kind of data set: Antipsychotic activity in Sprague-Dawley rat assessed as inhibition of MK801-induced disruption of prepulse inhibition at 5 to 20 mg/kg, po administered 15 mins prior to […] and measured after 15 mins. In kind it is functional, organism-based. The conditions noted are these: dose 5-20 mg/kg, time 30.0 min.

A word on the inhibition: it is the percentage by which the read-out fell short of the control. The ED50 is the midpoint of the dose-response relation.

The source made the active and inactive calls. The calls are words filed in the database; no cut-off is given here.

G-protein coupled receptor 52 (Mus musculus), sequence (P0C5J4 whole entry): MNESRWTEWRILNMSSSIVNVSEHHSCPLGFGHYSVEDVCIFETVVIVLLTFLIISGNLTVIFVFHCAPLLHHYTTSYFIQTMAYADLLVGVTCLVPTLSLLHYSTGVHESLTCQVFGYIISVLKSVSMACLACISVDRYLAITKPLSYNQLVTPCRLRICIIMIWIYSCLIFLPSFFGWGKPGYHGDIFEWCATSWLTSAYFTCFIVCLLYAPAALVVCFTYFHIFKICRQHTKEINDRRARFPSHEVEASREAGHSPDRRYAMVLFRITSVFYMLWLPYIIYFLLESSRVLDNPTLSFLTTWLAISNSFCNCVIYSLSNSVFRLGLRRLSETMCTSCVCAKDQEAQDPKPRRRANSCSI

As for `COc1ccc(Cc2ccnc(N3CCc4c(C(=O)NC[C@@H](F)CO)cccc43)c2)cc1F`, in [1], the inhibition came out at 67%. Same read-out and setting: to `O=C(NCCO)c1c(F)ccc2c1CCN2c1cc(Cc2cc(F)c(F)c(F)c2)ccn1` belongs 68%. For `O=C(NCCO)c1cccc2c1CCN2c1cc(Cc2cc(F)c(F)c(F)c2)ccn1`, the inhibition in data set [1] was 65%. Also, in [2], the Kp at 1 h was 3. For the compound `NC(=O)c1cccc2c1CCN2c1cc(Cc2ccc3occc3c2)ccn1`, the inhibition in [1] amounted to 81%.

For `NC(=O)c1cccc2c1CCN2c1cc(Cc2cc(F)cc(Cl)c2)ccn1`, the Kp at 1 h in [2] stood at 12.4. The same measure, in the same setting: to `O=C(NCCO)c1c(F)ccc2c1CCN2c1cc(Cc2cccc(C(F)(F)F)c2)ccn1` belongs 1.67; to `NC(=O)c1cccc2c1CCN2c1cc(Cc2cncc(C(F)(F)F)c2)ccn1`, 4.67. For `O=C(CCCN1CCC(O)(c2ccc(Cl)cc2)CC1)c1ccc(F)cc1` [HALOPERIDOL], the Activity result in data set [3] and in [4] was “Toxic” each time. With `C[C@@H](O)CNC(=O)c1cccc2c1CCN2c1cc(Cc2cc(F)c(F)c(F)c2)ccn1`, the inhibition in data set [1] was 68%.

Regarding `O=C(NCCO)c1cccc2c1CCN2c1cc(Cc2cc(F)cc(Cl)c2)ccn1`, the inhibition in data set [1] came to 79%. The Kp at 1 h in data set [2] turned out to be 5.45.

As to `NC(=O)c1cccc2c1CCN2c1cc(Cc2cccc(C(F)(F)F)c2)ccn1`, in data set [5], the Kp at 1 h turned out to be 4.49. Consider `NC(=O)c1cccc2c1CCN2c1cc(Cc2ccc(F)c(Cl)c2)ccn1`, for which the Kp at 1 h in data set [2] came out at 7.76.

With `COC[C@@H](O)CNC(=O)c1cccc2c1CCN2c1cc(Cc2cc(F)c(F)c(F)c2)ccn1`, the inhibition in [1] amounted to 72%.

Consider `O=C(NCCO)c1cccc2c1CCN2c1cc(Cc2cccc(C(F)(F)F)c2)ccn1`, for which the figures for the Activity result in data set [6], in data set [7] and in [13] were “Toxic”, “Non-Toxic” and “Non-Toxic”, respectively. Moreover, the inhibition in data set [1] is 70%. Further, the ED50 in data set [8] is 2.7 mg/kg. The outcome in the data set on Rattus norvegicus [9], with Mus musculus [10], in the data set on Mus musculus [11], in the data set with Rattus norvegicus [14] and in the data set on Rattus norvegicus [15] was Active. Also, the inhibition result in the data set on Rattus norvegicus [12] was “Active”. Besides, in [5], the Kp at 1 h came to 3.51. As to `COc1ccc(Cc2ccnc(N3CCc4c(C(=O)NCCO)cccc43)c2)cc1F`, in data set [2], the Kp at 1 h stood at 0.87. Consider `NC(=O)c1cccc2c1CCN2c1cc(Cc2ccc(F)c(C(F)(F)F)c2)ccn1`, for which, in [1], the inhibition came out at 61%. Turning to `CC(=O)c1cccc(Cc2ccnc(N3CCc4c(C(N)=O)cccc43)c2)c1`, the inhibition in data set [1] was found to be 72%. Besides, the Kp at 1 h in [2] was 1.36.

As to `O=C(NC[C@@H](F)CO)c1cccc2c1CCN2c1cc(Cc2cc(F)c(F)c(F)c2)ccn1`, the inhibition in [1] came out at 70%. In addition, in data set [2], the Kp at 1 h is 2.85. On the same counts, the results for `COc1ccc(Cc2ccnc(N3CCc4c(C(N)=O)cccc43)c2)cc1F` are 66% and 6.32. Regarding `O=C(NC1CCN(CCO)CC1)c1cccc2c1CCN2c1cc(Cc2ccc3c(c2)CCO3)ccn1`, the Kp at 1 h in data set [2] is 0.16. For the compound `COc1ccc(Cc2ccnc(N3CCc4c3ccc(F)c4C(=O)NC[C@@H](F)CO)c2)cc1F`, in data set [1], the inhibition came out at 62%.

The values above are taken from ChEMBL document CHEMBL4806956, “1-heteroaryl-indoline-4-carboxamides as modulators of gpr52 useful for the treatment or prevention of disorders related thereto” (2020).
